Experimental data from patent US20080287467A1, “Therapeutic Agent for Respiratory Diseases” (priority 2004, published 2008).
Like-named read-outs stand apart in the source and are kept apart here.

Tested on: swine bronchial smooth muscle cells
Test: Patch cramp (whole-cell) measurement of membrane current and membrane potential, ATP-induced inward current
Format: cell-based
Description: In the present specification, the patch cramp method is a method including allowing a glass micropipette (patch electrode) to attach tightly to cell membrane at a high resistance in giga-ohms (GΩ) or more and then measuring ion currents in conditions that a very small membrane region (patch membrane) on the top opening of the electrode is electrically isolated from other regions. In particular, the inventors measured and analyzed electric currents by the whole-cell mode including opening a hole by breaking the patch membrane to record ion current flowing through the whole cell membrane except the broken patch membrane.
Swine bronchial smooth muscle tissue was finely chopped and incubated at 37° C. for 40 minutes, using collagenase and papain, to isolate the cells.

Question: `COc1ccc(CCCOC(Cn2ccnc2)c2ccc(OC)cc2)cc1` (stereo not shown) [SKF 96365] was tested. Which “suppression of the ATP-induced inward current” value (shortened to “suppression”) did it give?
Answer: The value was “about 50%”.

Question: For `Nc1ncnc2c1ncn2[C@@H]1O[C@H](COP(=O)(O)OP(=O)(O)OP(=O)(O)O)[C@@H](O)[C@H]1O` [ATP, adenosine-5′-triphosphate], which “cellular membrane potential after depolarization due to ATP” value (electric current fixed, depolarized from −40 mV) is on record?
Answer: The value was −20 mV.

Question: And the “membrane current on ATP administration” value (membrane potential maintained at −40 mV)?
Answer: The value was “inward current passed”.

Question: With `COc1ccc2c(c1)CC[C@@H]1[C@@H]2CC[C@]2(C)[C@@H](NCCCCCCN3C(=O)C=CC3=O)CC[C@@H]12` [U-73122] as the compound, how does the “suppression” value (treatment with 100 μM, subsequent ATP dosing) read?
Answer: Its value is “no suppression”.

Question: How did the “suppression” value (concentration not given) turn out when `Cc1nc(N=Nc2ccc(S(=O)(=O)O)cc2S(=O)(=O)O)c(COP(=O)(O)O)c(C=O)c1O` [PPADS, pyridoxal phosphate-6-azophenyl-2′,4′-disulfonic acid] was run?
Answer: The value was “No suppression”.

Question: For `Cc1ccc(C(=O)Nc2ccc(S(=O)(=O)O)c3cc(S(=O)(=O)O)cc(S(=O)(=O)O)c23)cc1NC(=O)c1cccc(NC(=O)Nc2cccc(C(=O)Nc3cc(C(=O)Nc4ccc(S(=O)(=O)O)c5cc(S(=O)(=O)O)cc(S(=O)(=O)O)c45)ccc3C)c2)c1` [suramin], which “suppression” value (concentration not given) is on record?
Answer: Its value is “No suppression”.

Question: Which “enhancement of the ATP-induced inward current” value (FIG. 2) does the source give for ivermectin here?
Answer: The value was 3.5 fold.
